Our source for the melting point values is US9447100B2, “Substituted pyrazolo[1,5-A] pyrimidines as calcium receptor modulating agents” (Takeda Pharmaceutical Company Limited, priority 2002, dated 2016).

Structures are written as SMILES. Counter-ions that a name gives are not always drawn.

In the case of `CCOC(=O)CCc1ccc(C(CC)(CC)NC(=O)c2cnn3c2NC(c2ccccc2)CC3(C)C)cc1` (centres unmarked) [Example 759, ethyl 3-(4-(1-(((7,7-dimethyl-5-phenyl-4,5,6,7-tetrahydropyrazolo[1,5-a]pyrimidin-3-yl)carbonyl)amino)-1-ethylpropyl)phenyl)propanoate], the melting point fell in the range of 135 to 136 °C.

Regarding `CCc1ccc(C2CC(C(F)(F)F)n3ncc(C(=O)O)c3N2)cc1` (centres unmarked) [Example 28, 5-(4-ethylphenyl)-7-(trifluoromethyl)-4,5,6,7-tetrahydropyrazolo[1,5-a]pyrimidine-3-carboxylic acid], the melting point fell in the range of 165 to 168 °C.

Molecule `CC(C)(NC(=O)c1cnn2c1NC(c1ccccc1)CC2(C)C)c1ccc(C(F)(F)F)cc1` (centres unmarked) [Example 427, 7,7-dimethyl-N-(1-methyl-1-(4-(trifluoromethyl)phenyl)ethyl)-5-phenyl-4,5,6,7-tetrahydropyrazolo[1,5-a]pyrimidine-3-carboxamide] yielded a melting point of 182 to 183 °C.

For the molecule `CCCOC(=O)c1ccc(C(CC)(CC)NC(=O)c2cnn3c2NC(c2ccccc2)CC3(C)C)cc1` (centres unmarked) [Example 762, propyl 4-(1-(((7,7-dimethyl-5-phenyl-4,5,6,7-tetrahydropyrazolo[1,5-a]pyrimidin-3-yl)carbonyl)amino)-1-ethylpropyl)benzoate], the melting point is 162 to 163 °C.

As for `CCC(CC)(NC(=O)c1cnn2c1NC(c1ccccc1)CC2(C)C)c1ccc(CCC(=O)OC)cc1` (centres unmarked) [Example 748, methyl 3-(4-(1-(((7,7-dimethyl-5-phenyl-4,5,6,7-tetrahydropyrazolo[1,5-a]pyrimidin-3-yl)carbonyl)amino)-1-ethyl-propyl)phenyl)propanoate], the melting point fell in the range of 147 to 148 °C.

`CCC1(CC)C[C@@H](O)CN1C(=O)c1c(C)nn2c1N[C@@H](c1ccccc1)CC2(C)C` (as salt: HCl) [Example 1098, (3R)-5,5-diethyl-1-(((5R)-2,7,7-trimethyl-5-phenyl-4,5,6,7-tetrahydropyrazolo[1,5-a]pyrimidin-3-yl)carbonyl)-3-pyrrolidinol] yielded a melting point of 140 to 142 °C.

`CCC(CC)(NC(=O)c1c(C)nn2c1N[C@@H](c1ccccc1)CC2(C)C)c1ccc(CO)cc1` (as salt: HCl) [Example 1075, (5R)-N-(1-ethyl-1-(4-(hydroxymethyl)phenyl)propyl)-2,7,7-trimethyl-5-phenyl-4,5,6,7-tetrahydropyrazolo[1,5-a]pyrimidine-3-carboxamide] registered a melting point of 168 to 169 °C.

The molecule `CCC1(CC)C[C@@H](OC)CN1C(=O)c1c(C)nn2c1N[C@@H](c1ccccc1)CC2(C)C` [Example 1099, (5R)-3-(((4R)-2,2-diethyl-4-methoxy-1-pyrralidinyl)carbanyl)-2,7,7-trimethyl-5-phenyl-4,5,6,7-tetrahydropyrazolo[1,5-a]pyrimidine] gave a melting point of 132 to 134 °C.

`COC(=O)C1(NC(=O)c2cnn3c2N[C@H](c2ccccc2)C[C@@H]3C(F)(F)F)CCCCC1` (stereo in doubt) [Example 367, methyl 1-(((5-phenyl-7-(trifluoromethyl)-4,5,6,7-tetrahydropyrazolo[1,5-a]pyrimidin-3-yl)carbonyl)amino)cyclohexane carboxylate] came in with a melting point of 213 to 214 °C.

`CC(C)[C@H]1CC[C@H](C)CC1OC(=O)c1cnn2c1NC(c1ccccc1)CC2(C)C` (stereo partly drawn) [Example 1140, (2R,5S)-2-isopropyl-5-methylcyclohexyl 7,7-dimethyl-5-phenyl-4,5,6,7-tetrahydropyrazolo[1,5-a]pyrimidine-3-carboxylate] registered a melting point of 123 to 124 °C.

As to `CCC(CC)(NC(=O)c1cnn2c1NC(c1ccccn1)CC2(C)C)c1ccc(F)cc1` (centres unmarked) [Example 601, N-(1-ethyl-1-(4-fluorophenyl)propyl)-7,7-dimethyl-5-(2-pyridinyl)-4,5,6,7-tetrahydropyrazolo[1,5-a]pyrimidine-3-carboxamide], the melting point lay within 167 to 169 °C.

By melting point is commonly meant the temperature, or range, at which the solid turns liquid.
